pIC50: −log10 of the molar value. In brackets after ≈: the same amount, converted by molar mass. Entries after “also recorded” stand apart in the source; their conditions may differ.
Key:
M. tuberculosis H37Rv = conditions: cited from earlier work
M. tuberculosis = conditions: cited from earlier work
M. tuberculosis H37Ra [1] = assay: microbe, parasite or virus in culture; format: cell-based, Mycobacterium tuberculosis; conditions: for MIC: Mycobacterium tuberculosis, H37RA, 168 h, read-out: MIC against M. tuberculosis H37Ra
[2] = molecular target: M. tuberculosis DNA gyrase holoenzyme (GyrB ATPase activity) (Mycobacterium tuberculosis, UniProt P9WG45); assay: biochemical; conditions: for pIC50 / IC50 for inhibition of M. tuberculosis DNA gyrase ATPase activity: triplicate, at least 11 inhibitor concentrations; for pIC50: read-out: IC50 for inhibition of M. tuberculosis DNA gyrase ATPase activity
M. tuberculosis DNA gyrase holoenzyme (GyrB ATPase activity), sequence (P9WG45 whole entry, looked up): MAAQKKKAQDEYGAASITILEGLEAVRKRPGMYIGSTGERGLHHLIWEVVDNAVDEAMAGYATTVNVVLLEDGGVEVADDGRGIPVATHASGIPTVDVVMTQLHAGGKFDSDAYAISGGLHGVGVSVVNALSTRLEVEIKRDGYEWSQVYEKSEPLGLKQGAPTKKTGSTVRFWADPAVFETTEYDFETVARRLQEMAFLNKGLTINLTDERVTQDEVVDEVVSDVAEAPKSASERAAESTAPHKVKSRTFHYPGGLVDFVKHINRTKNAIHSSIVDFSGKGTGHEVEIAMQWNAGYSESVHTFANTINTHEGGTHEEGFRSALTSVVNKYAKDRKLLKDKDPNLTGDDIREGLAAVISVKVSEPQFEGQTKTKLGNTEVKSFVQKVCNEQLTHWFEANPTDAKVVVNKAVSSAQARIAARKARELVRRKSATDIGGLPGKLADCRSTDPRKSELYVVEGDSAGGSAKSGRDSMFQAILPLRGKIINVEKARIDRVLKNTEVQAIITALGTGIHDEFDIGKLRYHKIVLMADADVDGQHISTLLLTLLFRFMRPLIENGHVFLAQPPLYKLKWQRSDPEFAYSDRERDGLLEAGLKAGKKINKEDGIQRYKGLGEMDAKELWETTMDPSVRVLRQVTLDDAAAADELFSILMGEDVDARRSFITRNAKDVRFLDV

Caco-2 cells = assay: In vitro cytotoxicity, MTT assay; format: cell-based
Experimental: Caco-2 cells (ATCC no. HTB-37) were used for cytotoxicity testing of selected compounds as described in our previous work.[32] Cell viability of tested compounds on Caco-2 cells was determined using 3-(4,5-dimethylthiazol-2-yl)-2,5-diphenyltetrazolium bromide (MTT) following a modified assay procedure.[52] Absorbance was measured at 590 nm using a microplate reader (Infinite M200 PRO, Tecan Group Ltd., Switzerland). The experiment was performed in triplicate and compound concentrations at which cells retained a viability of more than 80% were considered as nontoxic to cells.[53]
Figure S1. Hit compound cytotoxicity against Caco-2 cells. Cells were incubated with different concentrations of compounds (1 (A), 2 (B), 3 (C), 8 (D), 11 (E), 14 (F), G24 (G), and G26 (H)) for 24 h and viability measured by MTT assay. Data are presented as the mean ± SD (n = 6). The yellow bars represent the maximum concentrations at which compounds are non-cytotoxic towards Caco-2 cells.
(1 picture or pasted object on this page, not shown here)

M. tuberculosis H37Ra [3] = conditions: previous virtual screening work; cited from earlier work

SMILES	MIC (M. tuberculosis H37Ra [1])	pIC50 [2]	maximum non-cytotoxic concentration toward Caco-2 cells (Caco-2 cells; human, Caco-2, 24 h)	further results
COc1ccc(CCNCC(O)Cn2c3ccccc3c3ccccc32)cc1OC (stereo not shown) [AF-399/41048884]				pIC50 (M. tuberculosis H37Rv): 4.97
OC(CN1CCN(c2ccccn2)CC1)Cn1c2ccccc2c2ccccc21 (stereo not shown) [AG-690/11353646]				pIC50 (M. tuberculosis): 4.44
OC(CNCCC1C=Nc2ccccc21)Cn1c2ccccc2c2ccccc21 (stereo not shown) [Compound 1]	6.2 µg/mL (≈ 16.2 µM)	6.14	25.0 µg/mL	
OC(CNCCOc1ccccc1)Cn1c2ccccc2c2ccccc21 (stereo not shown) [Compound 2]	6.2 µg/mL (≈ 17.2 µM)	5.87	12.5 µg/mL	
OC(CNCc1ccccc1)Cn1c2ccccc2c2ccccc21 (stereo not shown) [Compound 3]	12.5 µg/mL (≈ 37.8 µM)	5.42		maximum non-cytotoxic concentration toward Caco-2 cells (Caco-2 cells; 24 h, MTT, viability of more than 80% considered nontoxic): 12.5 µg/mL
Cc1ccc(NCC(O)Cn2c3ccccc3c3ccccc32)cc1Cl (stereo not shown) [Compound 4]	> 100 µg/mL			
O=C(NNCC(O)Cn1c2ccccc2c2ccccc21)c1ccccc1 (stereo not shown) [Compound 5]	> 100 µg/mL			
CCc1ccc(NCC(O)Cn2c3ccccc3c3ccccc32)cc1 (stereo not shown) [Compound 6]	> 100 µg/mL			
Cc1ccc(NCC(O)Cn2c3ccccc3c3ccccc32)cc1 (stereo not shown) [Compound 7]	> 100 µg/mL			
CCn1c2ccccc2c2cc(CNCCNCC(C)O)ccc21 (stereo not shown) [Compound 8]	25 µg/mL (≈ 76.8 µM)	6.59	12.5 µg/mL	ATPase inhibition, fold more effective than carbazole derivative 1 [2]: approximately 3 fold; ATPase inhibition, fold more effective than carbazole derivative 2 [2]: ~5 fold; ATPase inhibition, fold more effective than carbazole derivative 3 [2]: ~15 fold; IC50 fold better than novobiocin [2]: 5 fold
OC(CN1CCOCC1)Cn1c(-c2ccccc2)c(-c2ccccc2)c2ccc3ccccc3c21 (stereo not shown) [Compound 9]	12.5 µg/mL (≈ 27 µM)			IC50 for inhibition of M. tuberculosis DNA gyrase ATPase activity [2]: inactive; also recorded: absence of observable ATPase inhibition
OC(CNCc1ccco1)Cn1c(-c2ccccc2)c(-c2ccccc2)c2ccc3ccccc3c21 (stereo not shown) [Compound 10]	3.1 µg/mL (≈ 6.56 µM)			IC50 for inhibition of M. tuberculosis DNA gyrase ATPase activity [2]: inactive; also recorded: absence of observable ATPase inhibition
OCCNCC(O)Cn1c(-c2ccccc2)c(-c2ccccc2)c2ccc3ccccc3c21 (stereo not shown) [Compound 11]	3.1 µg/mL (≈ 7.1 µM)	6.25	0.87 µg/mL	IC50 fold better than novobiocin [2]: 2 fold
Cc1cc(C)c2c(c1)c(-c1ccccc1)c(-c1ccccc1)n2CC(O)CN1CCOCC1 (stereo not shown) [Compound 12]	12.5 µg/mL (≈ 28.4 µM)			IC50 for inhibition of M. tuberculosis DNA gyrase ATPase activity [2]: inactive; also recorded: absence of observable ATPase inhibition
Cc1ccc2c(c1)c(-c1ccccc1)c(-c1ccccc1)n2CC(O)CN1CCOCC1 (stereo not shown) [Compound 13]	12.5 µg/mL (≈ 29.3 µM)			IC50 for inhibition of M. tuberculosis DNA gyrase ATPase activity [2]: inactive; also recorded: absence of observable ATPase inhibition
Cc1ccc2c(c1)c(-c1ccccc1)c(-c1ccccc1)n2CC(O)CNC(CO)(CO)CO (stereo not shown) [Compound 14]	6.2 µg/mL (≈ 13.5 µM)	7.10	12.5 µg/mL	IC50 fold better than novobiocin [2]: 16 fold
Cc1ccc2c(c1)c(-c1ccccc1)c(-c1ccccc1)n2CC(O)CN(CCO)CCO (stereo not shown) [G24, reference compound]	12.5 µg/mL (≈ 28.1 µM)	5.57	25 µg/mL	maximum non-cytotoxic concentration, fold higher than for G26 (Caco-2 cells; human, 24 h): 15 fold; MIC against M. tuberculosis (previous work) (M. tuberculosis H37Ra [3]): 12.5 µg/mL (≈ 28.1 µM)
CO[C@@H]1[C@@H](OC(N)=O)[C@@H](O)[C@H](Oc2ccc3c(O)c(NC(=O)c4ccc(O)c(CC=C(C)C)c4)c(=O)oc3c2C)OC1(C)C [Novobiocin, reference compound]	> 100 µg/mL			MIC against M. tuberculosis H37Ra (M. tuberculosis H37Ra [1]): > 100 µg/mL; MIC against M. tuberculosis (previous work) (M. tuberculosis H37Ra [3]): exceeding 100 μg/mL

Reference: article PMC11323271 (Journal of Chemical Information and Modeling, 2024)
